Results published in patent publication US20120157471A1, “BENZIMIDAZOLE DERIVATIVES” (PFIZER INC., priority 2009, published 2012).

Columns and labels:
[1] = target: T1, human Smo (amino acids 181-787) (Homo sapiens, UniProt Q99835); experiment: Smo radioligand competition binding assay (displacement of 3H-PF-03451358 from HEK293 membranes); conditions: for inhibition at 0.05 µM: 0.05 μM test compound, displacement of 3H-PF-03451358, read-out: SMO % inh. @ 0.05 μM; for IC50: radioligand competition binding
T1 construct: expressed in transfected cells; membrane preparation
How it was run: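 Membranes (40 μg protein/well) from HEK293 expressing murine Igk-leader-fused Smo 181-787 incubated 2 h at room temperature with 3 nM 3H-PF-03451358 in Tris pH 7.5/NaCl/MgCl2/EDTA/BSA buffer; filter-bound counts by scintillation. Nonspecific binding with 30 μM cold PF-03451358; IC50 from four-parameter fit of % inhibition.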

Gli-Luc/MEF cells (Smo) = experiment: Gli-Luc/MEF assay (Shh-stimulated luciferase reporter under the Gli response element); type: cell-based, mouse
How it was run: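 Mouse Gli-Luc/MEF cells dosed with compound (3-fold series, […]) plus 2 μg/mL recombinant mouse Shh, then incubated 48 h at 37° C, 5% CO2. Bright-Glo luminescence read; IC50 calculated from inhibition of Shh-stimulated luciferase.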

T1 sequence (Q99835 181-787): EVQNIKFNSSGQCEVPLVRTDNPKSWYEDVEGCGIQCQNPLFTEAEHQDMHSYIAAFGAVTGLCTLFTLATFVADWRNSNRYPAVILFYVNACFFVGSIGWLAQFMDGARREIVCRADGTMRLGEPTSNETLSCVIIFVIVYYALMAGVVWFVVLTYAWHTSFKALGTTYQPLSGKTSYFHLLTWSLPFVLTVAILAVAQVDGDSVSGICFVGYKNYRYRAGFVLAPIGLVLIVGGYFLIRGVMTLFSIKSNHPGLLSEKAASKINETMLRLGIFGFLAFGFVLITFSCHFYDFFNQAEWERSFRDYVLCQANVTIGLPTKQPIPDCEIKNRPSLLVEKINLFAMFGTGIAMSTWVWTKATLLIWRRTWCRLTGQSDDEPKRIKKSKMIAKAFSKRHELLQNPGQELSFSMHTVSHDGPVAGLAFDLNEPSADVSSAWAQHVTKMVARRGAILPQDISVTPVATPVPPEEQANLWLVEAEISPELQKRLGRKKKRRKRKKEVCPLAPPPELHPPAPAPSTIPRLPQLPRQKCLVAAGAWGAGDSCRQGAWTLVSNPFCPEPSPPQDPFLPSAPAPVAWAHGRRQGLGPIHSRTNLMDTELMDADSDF

`Cn1cnnc1C1CCN(c2cc(-c3nc4ccccc4n3C)c(Cl)cn2)CC1` [Example A-132, 2-{5-chloro-2-[4-(4-methyl-4H-1,2,4-triazol-3-yl)piperidin-1-yl]pyridin-4-yl}-1-methyl-1H-benzimidazole] was tested, and the inhibition at 0.05 µM [1] was 51% and the IC50 (Gli-Luc/MEF cells (Smo); Mus musculus, MEF, 48 h) was 0.199 µM.

Work on `Cn1c(-c2cc(N3CCN(CCS(C)(=O)=O)CC3)ncc2Cl)nc2ccccc21` [Example A-206, 2-(5-chloro-2-{4-[2-(methylsulfonyl)ethyl]piperazin-1-yl}pyridin-4-yl)-1-methyl-1H-benzimidazole] yielded an inhibition at 0.05 µM [1] of 99%, an IC50 [1] of 0.017 µM and an IC50 (Gli-Luc/MEF cells (Smo); 48 hours) of 0.0171 µM.

With `CCC(=O)N1CCN(c2cc(-c3nc4ccccc4n3C)c(F)cn2)CC1` [Example D-4, 2-[5-fluoro-2-(4-propionylpiperazin-1-yl)pyridin-4-yl]-1-methyl-1H-benzimidazole] the inhibition at 0.05 µM [1] was 98%, the IC50 [1] was 0.019 µM and the IC50 (Gli-Luc/MEF cells (Smo); Mus musculus, MEF, 48 h) was 0.02 µM.

For `Cn1c(-c2cc(N3CC(O)C3)ncc2Cl)nc2ccccc21` [Example A-94, 1-[5-chloro-4-(1-methyl-1H-benzimidazol-2-yl)pyridin-2-yl]azetidin-3-ol], the inhibition at 0.05 µM [1] was 87%, the IC50 [1] was 0.087 µM and the IC50 (Gli-Luc/MEF cells (Smo); Mus musculus, MEF, 48 h) was 0.046 µM.

In the case of `COC(=O)NC1CCN(c2cc(-c3nc4ccccc4n3C)c(Cl)cn2)C1` (stereo not drawn) [Example A-152, methyl {1-[5-chloro-4-(1-methyl-1H-benzimidazol-2-yl)pyridin-2-yl]pyrrolidin-3-yl}carbamate], the inhibition at 0.05 µM [1] is reported as 87%, the IC50 [1] is reported as 0.069 µM and the IC50 (Gli-Luc/MEF cells (Smo); Mus musculus, MEF, 48 h) is reported as 0.021 µM.

`CCNC(=O)NC1CN(c2cc(-c3nc4ccccc4n3C)c(Cl)cn2)C1` [Example A-148, 1-{1-[5-chloro-4-(1-methyl-1H-benzimidazol-2-yl)pyridin-2-yl]azetidin-3-yl}-3-ethylurea] showed an inhibition at 0.05 µM [1] of 95%, an IC50 [1] of 0.021 µM and an IC50 (Gli-Luc/MEF cells (Smo); Mus musculus, MEF, 48 h) of 0.009 µM.

Compound `CC(=O)N(C)C1CCN(c2cc(-c3nc4ccccc4n3C)c(Cl)cn2)C1` (stereo not drawn) [Example A-183, N-{1-[5-chloro-4-(1-methyl-1H-benzimidazol-2-yl)pyridin-2-yl]pyrrolidin-3-yl}-N-methylacetamide] has an inhibition at 0.05 µM [1] of 89%, an IC50 [1] of 0.081 µM and an IC50 (Gli-Luc/MEF cells (Smo); Mus musculus, MEF, 48 h) of 0.065 µM.

`Cc1nccc(C2(O)CCN(c3cc(-c4nc5ccccc5n4C)c(Cl)cn3)C2)n1` (stereo not drawn) [Example A-123, 1-[5-chloro-4-(1-methyl-1H-benzimidazol-2-yl)pyridin-2-yl]-3-(2-methylpyrimidin-4-yl)pyrrolidin-3-ol] gave an inhibition at 0.05 µM [1] of 59% and an IC50 (Gli-Luc/MEF cells (Smo); Mus musculus, MEF, 48 h) of 0.114 µM.

For `COC(=O)N(C)C1CN(c2cc(-c3nc4ccccc4n3C)c(Cl)cn2)C1` [Example A-150, methyl {1-[5-chloro-4-(1-methyl-1H-benzimidazol-2-yl)pyridin-2-yl]azetidin-3-yl}methylcarbamate], the inhibition at 0.05 µM [1] was 87%, the IC50 [1] was 0.056 µM and the IC50 (Gli-Luc/MEF cells (Smo); Mus musculus, MEF, 48 h) was 0.023 µM.

Compound `Cn1c(-c2cc(N3CC(c4ccn[nH]4)C3)ncc2Cl)nc2ccccc21` [Example A-120, 2-{5-chloro-2-[3-(1H-pyrazol-5-yl)azetidin-1-yl]pyridin-4-yl}-1-methyl-1H-benzimidazole] has an inhibition at 0.05 µM [1] of 62% and an IC50 (Gli-Luc/MEF cells (Smo); Mus musculus, MEF, 48 h) of 0.114 µM.
